Measurements: ChEMBL document CHEMBL2021924, “Identification of novel telomeric G-quadruplex-targeting chemical scaffolds through screening of three NCI libraries” (Bioorg Med Chem Lett, 2012)

Experiments:
Format in all cases: nucleic-acid assay
[1] = test system: Nucleic Acid; assay: Stabilization of DNA duplex hairpin structure assessed as change in melting temperature at 1 uM by FRET assay
[2] = test system: Nucleic Acid; assay: Stabilization of human G-quadruplex F21T assessed as change in melting temperature at 1 uM by FRET assay
[3] = test system: Nucleic Acid; assay: Stabilization of human G-quadruplex F21T assessed as change in melting temperature at 5 uM by FRET assay

SMILES | ΔTm [1] [°C] | ΔTm [2] [°C] | ΔTm [3] [°C]
O=C(Nc1ccc(C2=NCCN2)cc1)c1ccc(C(=O)Nc2ccc(C3=NCCN3)cc2)c([N+](=O)[O-])c1 | 3.4 | 13.3 | 33.2
c1ccc2c(NCCCCCCCCNc3c4ccccc4nc4ccccc34)c3ccccc3nc2c1 | 0.7 | 3 | 38.5
COc1cc(Cc2nccc3cc(OC)c(OC)cc23)c(C(C)=O)cc1OC | 0.4 | 8 | 36.7
COc1ccc2c(NCCCCCCNc3c4ccccc4nc4cc(OC)ccc34)c3ccccc3nc2c1 | 3.9 | 30.5 | 39
COc1ccc2c(=O)oc3c(OC)cc(CCN(C)C)c4c(=O)oc1c2c34 | 1.7 | 13.2 | 24
CCN(CC)Cc1cc2[nH]c3c4ccc(Cl)cc4ncc3c2cc1OC | 0.7 | 15 | 25.9
COc1cc2c3c(n(C)c(=O)c2cc1OC)-c1cc2c(cc1C3=O)OCO2 | 0.3 | 8.1 | 18.8
COc1ccc2cc3[n+](cc2c1OC)CCc1cc2c(cc1-3)OCO2 | 0.3 | 9.7 | 23.8
O=C(Nc1ccc(C2=NCCCN2)cc1)Nc1ccc(C2=NCCCN2)cc1 | 2.9 | 20.1 | 21.5
COc1cc2cc3c4cc(OC)c(OC)cc4cc[n+]3c(C)c2cc1OC.O=C([O-])CS(=O)(=O)O | 3.2 | 29.9 | 42.6
CCN(CC)CCNc1ccc2nc(C)n3c4ccc(OC)cc4c(=O)c1c23 | 2.6 | 4.2 | 15.2

Continued, values first:

ΔTm [1] [°C] | ΔTm [2] [°C] | ΔTm [3] [°C] | SMILES
0.6 | 11.2 | 36.4 | CCN1C=C/C(=C\C=C\c2cc[n+](CC)c3ccccc23)c2ccccc21
0.3 | 1.3 | 22.1 | CN(C)c1ccc(C=c2c3ccccc3n3c2cc(-c2ccc(Cl)cc2)[n+]3C)cc1
0.4 | 7.3 | 19.7 | Cc1cc(N)c2cc(NC(=O)/C=C/c3ccccc3Cl)ccc2n1
0.4 | 22.7 | 26.6 | Cc1ccc(NC(=O)Nc2nc3ccccc3s2)cc1NC(=O)Nc1nc2ccccc2s1
3.2 | 17.3 | 26.3 | N=C(N)c1ccc(/C=C/c2ccc(C(=N)N)cc2O)cc1
8.8 | 29.5 | – | CN(C)c1ccc(Nc2c3ccc(NC(=O)CCN4CCCC4)cc3nc3cc(NC(=O)CCN4CCCC4)ccc23)cc1
1.4 | 8.4 | 20.4 | O=C(Nc1ccc(C2=NCCN2)cc1)c1ccc(C(=O)Nc2ccc(C3=NCCN3)cc2)c(Cl)c1
0.4 | 15.8 | 31.1 | CC(=O)N(C)c1ccc(Nc2cc(C)nc3ccc4nc[nH]c4c23)cc1
1.4 | 24.2 | 37.3 | O=C(Nc1ccc(C2=NCCN2)cc1)c1ccc(Cl)c(C(=O)Nc2ccc(C3=NCCN3)cc2)c1
1.3 | 19.5 | 40.7 | Cc1cc(N)c2ccccc2[n+]1CCCCCCCCCC[n+]1c(C)cc(N)c2ccccc21
0 | 12.4 | 22.9 | Cc1ccc2c(ccc(/C=C/c3ccc(O)c4ncccc34)[n+]2C)c1
0.6 | 11.8 | 38.7 | Cc1cc(NCCCCCCCNc2cc(C)nc3cc(N)ccc23)c2ccc(N)cc2n1
1.8 | 20.3 | 35.1 | Cc1cc2nc3ccc(N(C)C)cc3[s+]c2cc1N
